The source of these data is PMC10031131, “Design, synthesis and evaluation of a series of potential prodrugs of a Bruton’s tyrosine kinase (BTK) inhibitor” (Frontiers in Pharmacology, 2023).

Values after ≈ are worked out from the molar mass of the structure shown. Like-named read-outs stand apart in the source and are kept apart here.

The target of series [1] is T1, BTK (Homo sapiens, UniProt Q06187).
T1 construct: purchased Carna Biosciences
As to conditions: Figure 2; ref Kuglstatter et al., 2011; cited from earlier work.

Series [2] is described as follows: Thermodynamic solubility determination assay. Format: physicochemical. As to conditions: Britton-Robinson buffer (pH 6.5); for solubility thermodynamic: 25 °C, aqueous buffer, thermodynamic from solid, average of two measurements, read-out: S, pH 6.5 (thermodynamic solubility). On the procedure: Prior to mixing with the appropriate medium, the test chemical was accurately weighed into an appropriately sized screw-capped glass vial. The generated slurry was sonicated at room temperature for 20 min and at 50°C for 15 min, and then agitated at room temperature for at least two days before the crystallinity of the remaining solid was examined using a polarized light microscope. If crystallinity was not observed, more time for equilibration was allowed. The slurry was aliquoted into 1.5 mL centrifuge tubes on the day of analysis and centrifuged at 15,000 rpm for 20 min at 25°C. The supernatant’s concentration was determined by UV-vis (YOKE, T-U7S).

On the set-up of series [3]: method as in Li et al., 2014. Conditions: FaSSIF (Fasted State Simulated Intestinal Fluid, pH 6.5) medium; ref Li et al., 2014; cited from earlier work.
Details of series [4]: method as in Li et al., 2014. As to conditions: ref Li et al., 2014; cited from earlier work.
Series [5] in a line: Chemical stability in DMSO or buffer by HPLC. Conditions: HPLC analysis of in vitro stability after 24 h at room temperature. The series is classed as physicochemical.
Series [6] relates to BTK^C481S. Further details: method as in Gui et al., 2019. Conditions: Figure 2; ref Gui et al., 2019; cited from earlier work.
Series [7] addresses T1, BTK. Put plainly: Cell-free kinase enzymology assay (HTRF KinEase). Format: biochemical. On the procedure: FIGURE 4 (A) Enzymatic activities of parent 4 and prodrugs 5a-c for BTK. Kinase enzymology assays were carried out in accordance with the protocols described in the HTRF KinEase assays. (B) Time-dependent plasma stability assay.
The kinase (BTK) was acquired from Carna Biosciences. Kinase acitivity assays were carried out based on Cisbio Bioassays’ HTRF® technology. At room temperature, kinase and substrate were combined with compounds in varied concentrations, followed by adding ATP to activate the enzymatic reactions. EDTA solution was added to stop the reactions after 1 h, followed by the addition of streptavidin XL665 conjugates and anti-phosphotyrosine antibodies. The mixtures were incubated for an additional 1 h at room temperature before reading on a plate reader (EnVision®, Perkin Elmer). GraphPad Prism was used to analyze the data.

Series [8] in a line: Human plasma stability assay. Format: in vitro ADME. How it is done:
(§1) The in vitro stability in human plasma for the test compounds was investigated using procaine as the reference compound. The frozen human plasma was quickly thawed at 37°C. The spiking solution was made by combining 10 µL of a 10 mM compound stock solution with 990 µL of DMSO. The plasma and spiking solution were pre-warmed at 37°C for 5 min. Then 7 µL of the pre-warmed spiking solution was added into the 693 µL plasma evenly. The tests were carried out in duplicate in a 37°C shaking water bath. At 0, 5, 15, 30, 60, and 120 min, 100 µL samples were collected and added to a 400 µL solution containing an internal standard (IS). After quenching, the samples were vortexed for 5 min (600 rpm) and then centrifuged at 4,000 rpm for 20 min. LC-MS was used to analyze the clear supernatants. The values are the mean of two separate experiments.
as §1, with “at 37 °C.” for “at 37°C.”, “at 37 ℃” for “at 37°C”, “a 37 °C” for “a 37°C”

[9] abbreviates: DMSO, read-out: DMSO (% remaining).
Setting [10] is: buffer pH 7.4, read-out: Buffer, pH 7.4 (% remaining).

T1 sequence (Q06187 whole entry): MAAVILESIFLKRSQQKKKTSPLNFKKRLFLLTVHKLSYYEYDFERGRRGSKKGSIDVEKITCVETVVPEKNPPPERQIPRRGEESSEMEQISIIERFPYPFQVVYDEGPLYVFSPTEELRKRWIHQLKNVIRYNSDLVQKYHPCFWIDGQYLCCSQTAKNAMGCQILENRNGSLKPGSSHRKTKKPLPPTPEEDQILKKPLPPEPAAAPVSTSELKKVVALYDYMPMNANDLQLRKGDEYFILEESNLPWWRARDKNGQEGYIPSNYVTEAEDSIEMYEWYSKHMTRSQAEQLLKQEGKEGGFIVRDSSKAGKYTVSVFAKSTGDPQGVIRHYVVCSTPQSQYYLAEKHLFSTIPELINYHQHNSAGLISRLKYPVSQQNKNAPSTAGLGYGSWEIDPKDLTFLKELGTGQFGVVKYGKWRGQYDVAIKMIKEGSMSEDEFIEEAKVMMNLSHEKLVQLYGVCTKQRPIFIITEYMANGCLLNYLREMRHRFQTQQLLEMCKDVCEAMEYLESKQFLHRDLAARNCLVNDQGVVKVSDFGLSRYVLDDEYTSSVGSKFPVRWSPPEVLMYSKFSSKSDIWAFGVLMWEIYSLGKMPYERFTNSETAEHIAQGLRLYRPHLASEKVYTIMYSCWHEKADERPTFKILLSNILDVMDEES

Consider `Cc1ccc(NC(=O)/C=C/c2ccccc2)cc1C(=O)Nc1cnc2[nH]c(-c3ccccc3)nc2c1` [Compound 1], for which, in series [1], the IC50 – broadly, the concentration needed to halve the response being measured – is 5.6 µM.

As to `C=CC(=O)Nc1cccc(Nc2ncc(NC(=O)c3cc(NC(=O)c4cccc(C(F)(F)F)c4)ccc3C)cn2)c1` [Compound 2, reference compound], the solubility (thermodynamic) (in general, the concentration in solution at equilibrium with solid) in series [2] came out at 2 µM (≈ 1.12 µg/mL). The “solubility in FaSSIF” value in series [3] was 7.02 µM (≈ 3.93 µg/mL). Further, the “bioavailability (F%)” value in series [4] is on record as 0.9%. In series [5] (setting [9]), the amount remaining – broadly, the share of the starting amount still present when the sample was taken – at 24 h came to 100%.

As for `Cc1cc(Nc2ncc3c(n2)N(C)CN(c2cc(NC(=O)c4cccc(C(F)(F)F)c4)ccc2C)C3)n(C)n1` [Compound 3], the IC50 in series [6] was 0.011 µM.

In the case of `CC(=O)Nc1cc(Nc2ncc(NC(=O)c3cc(NC(=O)c4cccc(C(F)(F)F)c4)ccc3C)cn2)ccc1O` [Compound 4], the thermodynamic solubility in series [2] was 6.6 µM (≈ 3.73 µg/mL). The fraction remaining at 24 h in series [5] (setting [9]) and in series [5] (setting [10]) was 100% each time. For the same compound, in series [7], the concentration for half-maximal inhibition (IC50) worked out at 0.014 µM.

In the case of `CC(=O)Nc1cc(Nc2ncc(NC(=O)c3cc(NC(=O)c4cccc(C(F)(F)F)c4)ccc3C)cn2)ccc1OC(=O)CN1CCN(C)CC1` [Compound 5a], in series [2], the thermodynamic solubility amounted to 88 µM (≈ 62 µg/mL). The “Analyte Peak Area” value in series [8] is “BLOD”. For the same compound, the “time for conversion to parent 4 in human plasma” value in series [8] (human, 1 µM) is listed as “less than 2 h”. For the same compound, the share remaining at 24 h in series [5] (setting [9]) was 100%. For the same compound, the fraction remaining at 24 h in series [5] (setting [10]) came out at 99%. In series [7], 0.135 µM corresponded to half-maximal inhibition (IC50) and the “fold lower inhibitory potential for BTK compared to parent 4” value (“fold lower inhibitory potential for BTK” for short) was determined as 10 fold.

Turning to `CC(=O)Nc1cc(Nc2ncc(NC(=O)c3cc(NC(=O)c4cccc(C(F)(F)F)c4)ccc3C)cn2)ccc1OC(=O)CN` [Compound 5b, 2-Acetamido-4-((5-(2-methyl-5-(3-(trifluoromethyl)benzamido)benzamido)pyrimidin-2-yl)amino)phenyl glycinate], in series [2], the thermodynamic solubility is 22 µM (≈ 13.7 µg/mL) and the “increase of solubility compared to parent 4” value is “thrice”. The share remaining at 24 h in series [5] (setting [9]) was found to be 100%. Moreover, in series [5] (setting [10]), the share remaining at 24 h is 98%. In series [7], the IC50 worked out at 0.092 µM and the “fold lower inhibitory potential for BTK” value came to 7 fold.

`CC(=O)Nc1cc(Nc2ncc(NC(=O)c3cc(NC(=O)c4cccc(C(F)(F)F)c4)ccc3C)cn2)ccc1OC(=O)CN(C)C` [Compound 5c, 2-Acetamido-4-((5-(2-methyl-5-(3-(trifluoromethyl)benzamido)benzamido)pyrimidin-2-yl)amino)phenyl dimethylglycinate]: the thermodynamic solubility in series [2] worked out at 4.6 µM (≈ 2.99 µg/mL). Moreover, the share remaining at 24 h in series [5] (setting [9]) was found to be 100%. Moreover, in series [7], half-maximal inhibition (IC50) was put at 0.124 µM and the “fold lower inhibitory potential for BTK” value was 9 fold.

For the compound `CCN(CC)CCOC(=O)c1ccc(N)cc1` [Procaine, reference compound], the “Analyte Peak Area” value was “BLOD” in series [8] (human plasma, 37°C, time 15 min, duplicates); “BLOD” in series [8] (human plasma, 37°C, time 30 min, duplicates); “BLOD” in series [8] (human plasma, 37°C, time 60 min, duplicates); “BLOD” in series [8] (human plasma, 37°C, time 120 min, duplicates).
